Measured values from US4864018A, “Anthraquinone derivatives and their use as protein absorbents” (Imperial Chemical Industries PLC, priority 1985, dated 1989).

Target: T1, horse liver alcohol dehydrogenase (Equus caballus, UniProt P00327)
T1 construct: from tissue; host or cells: horse liver
Assay: affinity of binding with horse liver alcohol dehydrogenase: reduction in rate of enzyme de-activation by CI Reactive Blue 4 in competition with dye
Settings: carboxylate (i), (ii), (iii) versus sulphonate (iv), (v), (vi) respectively
Description: Three dyes of Formula I, in which the COOH group on Ring A is in the ortho (o), meta (m) and para (p) positions respectively, (i), (ii) and (iii) in Table 2, and three analogues in which the COOH groups are replaced by SO3 H groups, (iv), (v) and (vi) in Table 2, were assessed by affinity of binding with horse liver alcohol dehydrogenase. The assessment procedure comprised measuring the reduction in rate of enzyme de-activation by CI Reactive Blue 4 (a highly reactive, dichlorotriazine dye which rapidly deactivates horse liver alcohol dehydrogenase) when of dyes (i) to (vi) was allowed to compete with CI Reactive Blue 4 for the enzyme. From the reductions in rate observed the dissociation constants, KD, of the [enzyme-dye] combinations were calculated and these values are listed in Table 2.

T1 sequence (P00327 2-375 limits assumed): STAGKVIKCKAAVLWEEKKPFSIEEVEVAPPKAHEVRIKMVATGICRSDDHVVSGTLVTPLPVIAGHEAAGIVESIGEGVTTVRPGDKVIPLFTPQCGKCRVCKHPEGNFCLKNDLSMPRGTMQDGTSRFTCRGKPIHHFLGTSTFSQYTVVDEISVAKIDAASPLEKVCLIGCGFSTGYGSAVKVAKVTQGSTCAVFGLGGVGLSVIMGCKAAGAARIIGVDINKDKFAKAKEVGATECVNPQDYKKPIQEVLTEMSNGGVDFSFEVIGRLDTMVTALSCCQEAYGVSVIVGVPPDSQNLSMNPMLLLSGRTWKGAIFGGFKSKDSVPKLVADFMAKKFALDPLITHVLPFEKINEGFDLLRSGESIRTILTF

## Nc1c(S(=O)(=O)O)cc(Nc2ccc(Nc3nc(Cl)nc(Nc4ccc(C(=O)O)cc4)n3)c(S(=O)(=O)O)c2)c2c1C(=O)c1ccccc1C2=O [(iii)]
  binding affinity compared with the corresponding sulphonate analogue: markedly and surprisingly higher

## Nc1c(S(=O)(=O)O)cc(Nc2ccc(Nc3nc(Cl)nc(Nc4cccc(C(=O)O)c4)n3)c(S(=O)(=O)O)c2)c2c1C(=O)c1ccccc1C2=O [(ii)]
  binding affinity compared with the corresponding sulphonate analogue: markedly and surprisingly higher

## Nc1c(S(=O)(=O)O)cc(Nc2ccc(Nc3nc(Cl)nc(Nc4ccccc4C(=O)O)n3)c(S(=O)(=O)O)c2)c2c1C(=O)c1ccccc1C2=O [(i)]
  binding affinity compared with the corresponding sulphonate analogue: markedly and surprisingly higher
